The results in this text go back to patent US10464922B2, “Metalloenzyme inhibitor compounds” (NQP 1598 LTD., priority 2015, dated 2019).

One experiment relates to C. albicans (ATCC 90028). As to the kind of experiment: Minimum inhibitory concentration, in vitro broth microdilution assay (CLSI M27-A2). It is filed as cell-based, Candida albicans. Particulars: Candida albicans, ATCC90028, 48 h, ATCC 90028; about 50% growth reduction; 2 days at 36° C.; range tested 8-0.0078 μg/mL; values given as ranges; read-out: Candida albicans MIC. As to the method: The antifungal potency of the test compounds was measured using the in vitro broth microdilution assay under assay conditions described by the Clinical and Laboratory Standards Institute (CLSI M27-A2). The test compounds were dissolved in 100% DMSO, suspended completely by sonication or vortexing, diluted by 2-fold serial titrations in the same vehicle, for a total of 11 test concentrations. A 4 μL aliquot of each dilution was added to 196 μL of RPMI-1640+MOPS medium seeded with the C. albicans (ATCC 90028) suspension in wells of a 96 well plate (fungal cell count: 1×10^3 to 1×10^4 colony forming units per mL). The final volume was 200 μL in each well and the final DMSO concentration was 2 percent. The inoculated plates were incubated for 2 days at 36° C. Following incubation, the test plates were visually examined and wells were scored for growth to define the minimum inhibitory concentration. […] Each test substance was evaluated in duplicate. Vehicle-control and an active reference agent (e.g., posaconazole) were used as blank and positive controls, respectively.

The test system of the next experiment is A. fumigatus. The experiment can be described thus: A. fumigatus MIC at 100% growth inhibition (CLSI M38-A2). It is filed as cell-based, Aspergillus fumigatus. Particulars: Aspergillus fumigatus, 100% growth inhibition; range tested 8-0.0078 μg/mL; values given as ranges; read-out: Aspergillus fumigatus MIC. As to the method: A. fumigatus MICs were determined at 100% growth inhibition following CLSI guidelines at a concentration range of 8-0.0078 μg/mL (CLSI M38-A2).

Converted amounts (≈) assume the structure as drawn.

Take `N#Cc1ccc(C(=O)N2CCN(c3ccc(-c4ccc(C(F)(F)[C@](O)(Cn5cnnn5)c5ccc(F)cc5F)nc4)cc3)CC2)cc1` [Example 23, (R)-4-(4-(4-(6-(2-(2,4-difluorophenyl)-1,1-difluoro-2-hydroxy-3-(1H-tetrazol-1-yl)propyl)pyridin-3-yl)phenyl)piperazine-1-carbonyl) benzonitrile]: the MIC with C. albicans (ATCC 90028) is 0.0078 to 0.01 µg/mL (≈ 0.0121 to 0.0156 µM); in the experiment with A. fumigatus, more than 8 µg/mL.

Take `N#Cc1ccc(N2CCN(c3ccc(-c4ccc(C(F)(F)[C@](O)(Cn5cnnn5)c5ccc(F)cc5F)nc4)cc3)C(=O)C2)cc1` [Example 24, (R)-4-(4-(4-(6-(2-(2,4-difluorophenyl)-1,1-difluoro-2-hydroxy-3-(1H-tetrazol-1-yl)propyl)pyridin-3-yl)phenyl)-3-oxopiperazin-1-yl) benzonitrile]: the MIC is 0.0078 to 0.01 µg/mL (≈ 0.0124 to 0.0159 µM) in the experiment on C. albicans (ATCC 90028) and more than 8 µg/mL with A. fumigatus.

In the case of `N#Cc1ccc(N2CCN(c3ccc(-c4ccc(C(F)(F)[C@](O)(Cn5cnnn5)c5ccc(F)cc5F)nc4)cc3)CC2=O)cc1` [Example 25, (R)-4-(4-(4-(6-(2-(2,4-difluorophenyl)-1,1-difluoro-2-hydroxy-3-(1H-tetrazol-1-yl)propyl)pyridin-3-yl)phenyl)-2-oxopiperazin-1-yl) benzonitrile], the MIC with C. albicans (ATCC 90028) fell in the range of 0.0078 to 0.01 µg/mL (≈ 0.0124 to 0.0159 µM); in the experiment with A. fumigatus, 0.25 to 1 µg/mL (≈ 0.398 to 1.59 µM).

Turning to `N#Cc1ccc(C2CCN(c3ccc(-c4ccc(C(F)(F)[C@](O)(Cn5cnnn5)c5ccc(F)cc5F)nc4)cc3)CC2)cc1` [Example 26, (R)-4-(1-(4-(6-(2-(2,4-difluorophenyl)-1,1-difluoro-2-hydroxy-3-(1H-tetrazol-1-yl)propyl)pyridin-3-yl)phenyl)piperidin-4-yl) benzonitrile], the minimum inhibitory concentration (MIC) in the experiment on C. albicans (ATCC 90028) is 0.0078 to 0.01 µg/mL (≈ 0.0127 to 0.0163 µM); with A. fumigatus it was 0.25 to 1 µg/mL (≈ 0.407 to 1.63 µM).

Regarding `N#Cc1ccc(N2CCN(Cc3ccc(-c4ccc(C(F)(F)[C@](O)(Cn5cnnn5)c5ccc(F)cc5F)nc4)cc3)C(=O)C2)cc1` [Example 27, (R)-4-(4-(4-(6-(2-(2,4-difluorophenyl)-1,1-difluoro-2-hydroxy-3-(1H-tetrazol-1-yl)propyl)pyridin-3-yl)benzyl)-3-oxopiperazin-1-yl) benzonitrile], the values for the MIC with C. albicans (ATCC 90028) and in the experiment with A. fumigatus were 0.01 to 0.1 µg/mL (≈ 0.0156 to 0.156 µM) and more than 8 µg/mL, respectively.

In the case of `O=Cc1ccc(N2CCN(c3ccc(-c4ccc(C(F)(F)[C@](O)(Cn5cnnn5)c5ccc(F)cc5F)nc4)cc3)CC2)cc1` [Example 29, (R)-4-(4-(4-(6-(2-(2,4-difluorophenyl)-1,1-difluoro-2-hydroxy-3-(1H-tetrazol-1-yl)propyl)pyridin-3-yl)phenyl)piperazin-1-yl) benzaldehyde], the values for the MIC in the experiment with C. albicans (ATCC 90028) and with A. fumigatus were 0.01 to 0.1 µg/mL (≈ 0.0162 to 0.162 µM) and more than 8 µg/mL, respectively.

For `CN(C)Cc1ccc(N2CCN(c3ccc(-c4ccc(C(F)(F)[C@](O)(Cn5cnnn5)c5ccc(F)cc5F)nc4)cc3)CC2)cc1` [Example 30], the minimum inhibitory concentration (MIC) with C. albicans (ATCC 90028) lay within 0.0078 to 0.01 µg/mL (≈ 0.0121 to 0.0155 µM); with A. fumigatus, 0.25 to 1 µg/mL (≈ 0.387 to 1.55 µM).

Consider `O=Cc1ccc(N2CCN(c3ccc(-c4ccc(C(F)(F)[C@](O)(Cn5cnnn5)c5ccc(F)cc5F)nc4)cc3)CC2)cn1` [Example 32, (R)-5-(4-(4-(6-(2-(2,4-difluorophenyl)-1,1-difluoro-2-hydroxy-3-(1H-tetrazol-1-yl)propyl)pyridin-3-yl)phenyl)piperazin-1-yl) picolinaldehyde], for which the MIC in the experiment with C. albicans (ATCC 90028) was in the range of 0.1 to 1 µg/mL (≈ 0.162 to 1.62 µM); in the experiment with A. fumigatus, 0.25 to 1 µg/mL (≈ 0.404 to 1.62 µM).

Regarding `CN(C)Cc1ccc(N2CCN(c3ccc(-c4ccc(C(F)(F)[C@](O)(Cn5cnnn5)c5ccc(F)cc5F)nc4)cc3)CC2)cn1` [Example 33, (R)-2-(2,4-difluorophenyl)-1-(5-(4-(4-(6-((dimethylamino)methyl)pyridin-3-yl)piperazin-1-yl)phenyl)pyridin-2-yl)-1,1-difluoro-3-(1H-tetrazol-1-yl) propan-2-ol], the MIC with C. albicans (ATCC 90028) was in the range of 0.01 to 0.1 µg/mL (≈ 0.0154 to 0.154 µM); with A. fumigatus it was 1 to 4 µg/mL (≈ 1.54 to 6.18 µM).

In the case of `OC(c1ccc(N2CCN(c3ccc(-c4ccc(C(F)(F)[C@](O)(Cn5cnnn5)c5ccc(F)cc5F)nc4)cc3)CC2)nc1)C(F)(F)F` (stereo partly drawn) [Example 34, (2R)-2-(2,4-difluorophenyl)-1,1-difluoro-3-(1H-tetrazol-1-yl)-1-(5-(4-(4-(5-(2,2,2-trifluoro-1-hydroxyethyl)pyridin-2-yl)piperazin-1-yl)phenyl)pyridin-2-yl) propan-2-ol], the MIC with C. albicans (ATCC 90028) is 0.0078 to 0.01 µg/mL (≈ 0.0113 to 0.0145 µM); in the experiment on A. fumigatus, 0.25 to 1 µg/mL (≈ 0.363 to 1.45 µM).

`O[C@@](Cn1cnnn1)(c1ccc(F)cc1F)C(F)(F)c1ccc(-c2ccc(N3CCN(c4ccc5[nH]c(C(F)(F)F)nc5c4)CC3)cc2)cn1` [Example 35, (R)-2-(2,4-difluorophenyl)-1,1-difluoro-3-(1H-tetrazol-1-yl)-1-(5-(4-(4-(2-(trifluoromethyl)-1H-benzo [d]imidazol-5-yl)piperazin-1-yl)phenyl)pyridin-2-yl) propan-2-ol]: the MIC lay in the range of 0.0078 to 0.01 µg/mL (≈ 0.0112 to 0.0143 µM) with C. albicans (ATCC 90028) and 0.25 to 1 µg/mL (≈ 0.358 to 1.43 µM) with A. fumigatus.

In the case of `CCC(C(C)O)n1ccc(N2CCN(c3ccc(-c4ccc(C(F)(F)[C@](O)(Cn5cnnn5)c5ccc(F)cc5F)nc4)cc3)CC2)cc1=O` (stereo partly drawn) [Example 37, 4-(4-(4-(6-((R)-2-(2,4-difluorophenyl)-1,1-difluoro-2-hydroxy-3-(1H-tetrazol-1-yl)propyl)pyridin-3-yl)phenyl)piperazin-1-yl)-1-(2-hydroxypentan-3-yl) pyridin-2(1H)-one], the MIC with C. albicans (ATCC 90028) is 0.01 to 0.1 µg/mL (≈ 0.0144 to 0.144 µM); with A. fumigatus it was more than 8 µg/mL.

Turning to `CCC(O)c1ccc(N2CCN(c3ccc(-c4ccc(C(F)(F)[C@](O)(Cn5cnnn5)c5ccc(F)cc5F)nc4)cc3)CC2)cc1` (stereo partly drawn) [Example 39], the minimum inhibitory concentration (MIC) in the experiment with C. albicans (ATCC 90028) lay in the range of 0.01 to 0.1 µg/mL (≈ 0.0154 to 0.154 µM); with A. fumigatus it was 0.25 to 1 µg/mL (≈ 0.386 to 1.54 µM).

Turning to `CC(C)C(O)c1ccc(N2CCN(c3ccc(-c4ccc(C(F)(F)[C@](O)(Cn5cnnn5)c5ccc(F)cc5F)nc4)cc3)CC2)cc1` (stereo partly drawn) [Example 40, 1-(4-(4-(4-(6-((R)-2-(2,4-difluorophenyl)-1,1-difluoro-2-hydroxy-3-(1H-tetrazol-1-yl)propyl)pyridin-3-yl)phenyl)piperazin-1-yl)phenyl)-2-methylpropan-1-ol], the MIC in the experiment with C. albicans (ATCC 90028) was 0.0078 to 0.01 µg/mL (≈ 0.0118 to 0.0151 µM); in the experiment on A. fumigatus, 0.25 to 1 µg/mL (≈ 0.378 to 1.51 µM).

As for `CC(C)CC(O)c1ccc(N2CCN(c3ccc(-c4ccc(C(F)(F)[C@](O)(Cn5cnnn5)c5ccc(F)cc5F)nc4)cc3)CC2)cc1` (stereo partly drawn) [Example 41, 1-(4-(4-(4-(6-((R)-2-(2,4-difluorophenyl)-1,1-difluoro-2-hydroxy-3-(1H-tetrazol-1-yl)propyl)pyridin-3-yl)phenyl)piperazin-1-yl)phenyl)-3-methylbutan-1-ol], the MIC in the experiment with C. albicans (ATCC 90028) fell in the range of 0.0078 to 0.01 µg/mL (≈ 0.0115 to 0.0148 µM); in the experiment on A. fumigatus, 0.25 to 1 µg/mL (≈ 0.37 to 1.48 µM).

Take `OC(c1ccc(N2CCN(c3ccc(-c4ccc(C(F)(F)[C@](O)(Cn5cnnn5)c5ccc(F)cc5F)nc4)cc3)CC2)cc1)C1CC1` (stereo partly drawn) [Example 42, (2R)-1-(5-(4-(4-(4-(cyclopropyl (hydroxy)methyl)phenyl)piperazin-1-yl)phenyl)pyridin-2-yl)-2-(2,4-difluorophenyl)-1,1-difluoro-3-(1H-tetrazol-1-yl) propan-2-ol]: the MIC with C. albicans (ATCC 90028) was 0.0078 to 0.01 µg/mL (≈ 0.0118 to 0.0152 µM); with A. fumigatus, more than 8 µg/mL.

In the case of `CC(C)(C)C(O)c1ccc(N2CCN(c3ccc(-c4ccc(C(F)(F)[C@](O)(Cn5cnnn5)c5ccc(F)cc5F)nc4)cc3)CC2)cc1` (stereo partly drawn) [Example 43, 1-(4-(4-(4-(6-((R)-2-(2,4-difluorophenyl)-1,1-difluoro-2-hydroxy-3-(1H-tetrazol-1-yl)propyl)pyridin-3-yl)phenyl)piperazin-1-yl)phenyl)-2,2-dimethylpropan-1-ol], the MIC with C. albicans (ATCC 90028) fell in the range of 0.0078 to 0.01 µg/mL (≈ 0.0115 to 0.0148 µM); in the experiment with A. fumigatus, 0.25 to 1 µg/mL (≈ 0.37 to 1.48 µM).

As to `CC(O)c1ccc(N2CCN(c3ccc(-c4ccc(C(F)(F)[C@](O)(Cn5cnnn5)c5ccc(F)cc5F)nc4)cc3)CC2)cn1` (stereo partly drawn) [Example 44, (2R)-2-(2,4-difluorophenyl)-1,1-difluoro-1-(5-(4-(4-(6-(1-hydroxyethyl)pyridin-3-yl)piperazin-1-yl)phenyl)pyridin-2-yl)-3-(1H-tetrazol-1-yl) propan-2-ol], the minimal inhibitory concentration (MIC) lay in the range of 0.0078 to 0.01 µg/mL (≈ 0.0123 to 0.0158 µM) in the experiment on C. albicans (ATCC 90028) and 1 to 4 µg/mL (≈ 1.58 to 6.3 µM) in the experiment on A. fumigatus.

In the case of `CC(C)C(O)c1ccc(N2CCN(c3ccc(-c4ccc(C(F)(F)[C@](O)(Cn5cnnn5)c5ccc(F)cc5F)nc4)cc3)CC2)cn1` (stereo partly drawn) [Example 45, 1-(5-(4-(4-(6-((R)-2-(2,4-difluorophenyl)-1,1-difluoro-2-hydroxy-3-(1H-tetrazol-1-yl)propyl)pyridin-3-yl)phenyl)piperazin-1-yl)pyridin-2-yl)-2-methylpropan-1-ol], the MIC with C. albicans (ATCC 90028) was in the range of 0.0078 to 0.01 µg/mL (≈ 0.0118 to 0.0151 µM); with A. fumigatus, 0.25 to 1 µg/mL (≈ 0.377 to 1.51 µM).

In the case of `OC(c1ccc(N2CCN(c3ccc(-c4ccc(C(F)(F)[C@](O)(Cn5cnnn5)c5ccc(F)cc5F)nc4)cc3)CC2)cn1)C1CC1` (stereo partly drawn) [Example 46], the MIC in the experiment on C. albicans (ATCC 90028) was 0.0078 to 0.01 µg/mL (≈ 0.0118 to 0.0151 µM); in the experiment on A. fumigatus, more than 8 µg/mL.

Regarding `CC(C)(O)c1ccc(N2CCN(c3ccc(-c4ccc(C(F)(F)[C@](O)(Cn5cnnn5)c5ccc(F)cc5F)nc4)cc3)CC2)cn1` [Example 47, (R)-2-(2,4-difluorophenyl)-1,1-difluoro-1-(5-(4-(4-(6-(2-hydroxypropan-2-yl)pyridin-3-yl)piperazin-1-yl)phenyl)pyridin-2-yl)-3-(1H-tetrazol-1-yl) propan-2-ol], the results for the MIC in the experiment with C. albicans (ATCC 90028) and in the experiment with A. fumigatus were 0.01 to 0.1 µg/mL (≈ 0.0154 to 0.154 µM) and 0.25 to 1 µg/mL (≈ 0.385 to 1.54 µM), respectively.

Usually MIC stands for the least concentration at which growth counts as inhibited.
